# Values quoted from earlier work, collected in patent US20060122095A1, “Mucus formulation for mucosal surfaces and uses thereof” (priority 2002, published 2006).
# “Also recorded” adds a separate entry of the source.
# Columns and labels:
# HIV-1 [1] = tested on: HIV-1
# HIV-1 [2] = conditions: after complete washing away of unbound drug
# [3] = tested on: different cell types in culture; conditions: even at extremely high concentrations
# [4] = multiple routes of administration, different species of animals
# HIV-1 [5] = conditions: previous evaluations of UC-781 formulations
smiles,measurement,setting,value
"CC(C)=CCOc1cc(NC(=S)c2ccoc2C)ccc1Cl [UC-781, N-[4-chloro-3-(3-methyl-2-butenyloxy)phenyl]]",effectiveness against strains of HIV-1 that encode known NNRTI resistance mutations,HIV-1 [1]; compared with wild type isolates,equally effective
same,"HIV-1 inhibition effect, inactivating concentration","HIV-1 [1]; primary wild type isolates of clades A through G, in vitro",nanomolar range; also recorded: nanomolar concentrations
same,resistance of pre-treated cells to infection (memory effect),HIV-1 [2],remained resistant to infection for several days
same,toxic effect on cells in culture,[3],no toxic effect
same,bioavailability,[4],poor bioavailability
same,solubility in water,,limited solubility in water
same,activity in explant model,HIV-1 [5],remained active
